Reference: the supplement of paper PMC12406974

Legend:
Test in all cases: maximum observed lethal fraction; higher = more cell death
U2OS BAX/BAK1 DKO = tested on: U2OS BAX/BAK1 DKO
U2OS BCL2L12-KO = tested on: U2OS BCL2L12-KO
U2OS PTBP1-KO = tested on: U2OS PTBP1-KO
U2OS = tested on: U2OS
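Further: FLICK assay: SYTOX Green fluorescence of dead cells tracked over time after drugging in 96-well plates, with total cell counts taken from Triton X-100 lysed wells.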

| SMILES | maximum observed lethal fraction (U2OS BAX/BAK1 DKO; 0.01 µM) | maximum observed lethal fraction (U2OS BAX/BAK1 DKO; 0.0316 µM) | maximum observed lethal fraction (U2OS BAX/BAK1 DKO; 0.1 µM) | maximum observed lethal fraction (U2OS BAX/BAK1 DKO; 0.316 µM) | maximum observed lethal fraction (U2OS BAX/BAK1 DKO; 1 µM) | maximum observed lethal fraction (U2OS BAX/BAK1 DKO; 3.16 µM) | maximum observed lethal fraction (U2OS BAX/BAK1 DKO; 10 µM) | maximum observed lethal fraction (U2OS BCL2L12-KO; 0.01 µM) | maximum observed lethal fraction (U2OS BCL2L12-KO; 0.0316 µM) | maximum observed lethal fraction (U2OS BCL2L12-KO; 0.1 µM) | maximum observed lethal fraction (U2OS BCL2L12-KO; 0.316 µM) | maximum observed lethal fraction (U2OS BCL2L12-KO; 1 µM) | maximum observed lethal fraction (U2OS BCL2L12-KO; 3.16 µM) | maximum observed lethal fraction (U2OS BCL2L12-KO; 10 µM) | maximum observed lethal fraction (U2OS PTBP1-KO; 0.01 µM) | maximum observed lethal fraction (U2OS PTBP1-KO; 0.0316 µM) | maximum observed lethal fraction (U2OS PTBP1-KO; 0.1 µM) | maximum observed lethal fraction (U2OS PTBP1-KO; 0.316 µM) | maximum observed lethal fraction (U2OS PTBP1-KO; 1 µM) | maximum observed lethal fraction (U2OS PTBP1-KO; 3.16 µM) | maximum observed lethal fraction (U2OS PTBP1-KO; 10 µM) | maximum observed lethal fraction (U2OS; 0.01 µM) | maximum observed lethal fraction (U2OS; 0.0316 µM) | maximum observed lethal fraction (U2OS; 0.1 µM) | maximum observed lethal fraction (U2OS; 0.316 µM) | maximum observed lethal fraction (U2OS; 1 µM) | maximum observed lethal fraction (U2OS; 3.16 µM) | maximum observed lethal fraction (U2OS; 10 µM) | maximum observed lethal fraction (U2OS BAX/BAK1 DKO; 31.6 µM) | maximum observed lethal fraction (U2OS BCL2L12-KO; 31.6 µM) | maximum observed lethal fraction (U2OS PTBP1-KO; 31.6 µM) | maximum observed lethal fraction (U2OS; 31.6 µM) | maximum observed lethal fraction (U2OS BAX/BAK1 DKO; 0.001 µM) | maximum observed lethal fraction (U2OS BAX/BAK1 DKO; 0.00316 µM) | maximum observed lethal fraction (U2OS BCL2L12-KO; 0.001 µM) | maximum observed lethal fraction (U2OS BCL2L12-KO; 0.00316 µM) | maximum observed lethal fraction (U2OS PTBP1-KO; 0.001 µM) | maximum observed lethal fraction (U2OS PTBP1-KO; 0.00316 µM) | maximum observed lethal fraction (U2OS; 0.001 µM) | maximum observed lethal fraction (U2OS; 0.00316 µM) |
| --- | --- | --- | --- | --- | --- | --- | --- | --- | --- | --- | --- | --- | --- | --- | --- | --- | --- | --- | --- | --- | --- | --- | --- | --- | --- | --- | --- | --- | --- | --- | --- | --- | --- | --- | --- | --- | --- | --- | --- | --- |
| CC(=O)N[C@H]1[C@@H](O[C@@H]2O[C@H](CC(O)[C@H]3O[C@@H](n4ccc(=O)[nH]c4=O)[C@H](O)[C@@H]3O)[C@H](O)[C@H](O)[C@H]2NC(=O)/C=C/CC(C)C)O[C@H](CO)[C@@H](N)[C@@H]1O (some centres undefined) [Tunicamycin] | 0.0556 | 0.0546 | 0.0609 | 0.0665 | 0.0788 | 0.089 | 0.0844 | 0.0673 | 0.0693 | 0.0857 | 0.196 | 0.58 | 0.86 | 0.873 | 0.0696 | 0.0731 | 0.0724 | 0.0808 | 0.104 | 0.345 | 0.533 | 0.0548 | 0.0561 | 0.0662 | 0.0886 | 0.347 | 0.692 | 0.82 | – | – | – | – | – | – | – | – | – | – | – | – |
| COc1cc([C@@H]2c3cc4c(cc3[C@@H](O[C@@H]3O[C@@H]5CO[C@@H](C)O[C@H]5[C@H](O)[C@H]3O)[C@H]3COC(=O)[C@H]23)OCO4)cc(OC)c1O [Etoposide] | – | 0.055 | 0.0596 | 0.0706 | 0.0746 | 0.0695 | 0.0871 | – | 0.0627 | 0.0728 | 0.083 | 0.0936 | 0.0967 | 0.341 | – | 0.0736 | 0.0782 | 0.0848 | 0.0897 | 0.0981 | 0.384 | – | 0.0568 | 0.0636 | 0.0687 | 0.0712 | 0.0784 | 0.31 | 0.0793 | 0.629 | 0.649 | 0.601 | – | – | – | – | – | – | – | – |
| O=C(NOC[C@H](O)CO)c1ccc(F)c(F)c1Nc1ccc(I)cc1F [Mirdametinib] | – | 0.0734 | 0.0716 | 0.0737 | 0.078 | 0.0794 | 0.0785 | – | 0.104 | 0.11 | 0.123 | 0.349 | 0.546 | 0.58 | – | 0.0994 | 0.11 | 0.102 | 0.121 | 0.187 | 0.229 | – | 0.0749 | 0.077 | 0.0842 | 0.244 | 0.353 | 0.435 | 0.0843 | 0.806 | 0.376 | 0.554 | – | – | – | – | – | – | – | – |
| Cc1c2oc3c(C)ccc(C(=O)N[C@@H]4C(=O)N[C@H](C(C)C)C(=O)N5CCC[C@H]5C(=O)N(C)CC(=O)N(C)[C@@H](C(C)C)C(=O)O[C@@H]4C)c3nc-2c(C(=O)N[C@@H]2C(=O)N[C@H](C(C)C)C(=O)N3CCC[C@H]3C(=O)N(C)CC(=O)N(C)[C@@H](C(C)C)C(=O)O[C@@H]2C)c(N)c1=O [Actinomycin-D] | 0.0792 | 0.088 | 0.0799 | 0.0933 | 0.0822 | – | – | 0.648 | 0.35 | 0.254 | 0.406 | 0.377 | – | – | 0.311 | 0.206 | 0.243 | 0.368 | 0.328 | – | – | 0.505 | 0.545 | 0.4 | 0.637 | 0.578 | – | – | – | – | – | – | 0.0757 | 0.0754 | 0.101 | 0.199 | 0.0967 | 0.164 | 0.0789 | 0.0968 |
| CN(C)C/C=C/C(=O)Nc1ccc(C(=O)Nc2cccc(Nc3ncc(Cl)c(-c4c[nH]c5ccccc45)n3)c2)cc1 [THZ1] | 0.0742 | 0.0981 | 0.0902 | 0.1 | 0.109 | 0.157 | 0.12 | 0.0888 | 0.274 | 0.475 | 0.467 | 0.582 | 0.742 | 0.761 | 0.101 | 0.239 | 0.388 | 0.33 | 0.486 | 0.627 | 0.707 | 0.0758 | 0.274 | 0.452 | 0.441 | 0.57 | 0.678 | 0.76 | – | – | – | – | – | – | – | – | – | – | – | – |
| CN(C)CC[C@H](CSc1ccccc1)Nc1ccc(S(=O)(=O)NC(=O)c2ccc(N3CCN(Cc4ccccc4-c4ccc(Cl)cc4)CC3)cc2)cc1[N+](=O)[O-] [ABT-737] | – | 0.0579 | 0.0557 | 0.0559 | 0.0569 | 0.0568 | 0.0722 | – | 0.0733 | 0.076 | 0.0912 | 0.127 | 0.28 | 0.596 | – | 0.0704 | 0.0736 | 0.0737 | 0.0836 | 0.13 | 0.38 | – | 0.0571 | 0.0649 | 0.0818 | 0.115 | 0.189 | 0.462 | 0.082 | 0.84 | 0.617 | 0.788 | – | – | – | – | – | – | – | – |
| C/C=C(/C)C(=O)O[C@H]1C(C)=C2[C@H]([C@@H]1OC(=O)CCCCCCC)[C@@](C)(OC(C)=O)C[C@H](OC(=O)CCC)[C@@]1(O)[C@H]2OC(=O)[C@@]1(C)O [Thapsigargin] | – | 0.0914 | 0.192 | 0.171 | 0.266 | 0.163 | 0.811 | – | 0.631 | 0.675 | 0.688 | 0.71 | 0.721 | 0.779 | – | 0.228 | 0.265 | 0.324 | 0.296 | 0.48 | 0.831 | – | 0.405 | 0.476 | 0.473 | 0.602 | 0.585 | 0.763 | 0.884 | 0.892 | 0.892 | 0.862 | – | – | – | – | – | – | – | – |
| Cc1cc(Nc2ccc(NC(=O)c3ccc(Nc4ccnc5ccccc45)cc3)cc2)nc(N)n1 [SGI-1027] | – | 0.0581 | 0.0592 | 0.0626 | 0.104 | 0.964 | 1 | – | 0.0572 | 0.0566 | 0.0604 | 0.902 | 1 | 0.984 | – | 0.0577 | 0.0687 | 0.0612 | 0.208 | 0.977 | 1 | – | 0.0565 | 0.0566 | 0.0644 | 0.414 | 0.997 | 1 | 0.883 | 0.888 | 0.886 | 0.875 | – | – | – | – | – | – | – | – |
